Laboratory results reported in publication PMC8119466, “A screen of FDA-approved drugs identifies inhibitors of protein tyrosine phosphatase 4A3 (PTP4A3 or PRL-3)” (Scientific Reports, 2021).
Structures can show the parent of a compound that is named as a salt. Where two headings read alike, the source gives them in different places.

Key:
Format in all cases: biochemical
recombinant PRL-2 = biological target: T1, recombinant PRL-2 (Homo sapiens, UniProt Q12974); assay: In vitro phosphatase assay (DiFMUP hydrolysis), PRL-2;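 also: PRL-2 activity read as DiFMUP hydrolysis after 20 min at room temperature with drug, enzyme first pre-reduced at 4 °C for 20 min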
T1 construct: 6xHis (N, cleaved yes); made in house; host or cells: E. coli One Shot BL21 Star
T1 sequence (Q12974 1-167): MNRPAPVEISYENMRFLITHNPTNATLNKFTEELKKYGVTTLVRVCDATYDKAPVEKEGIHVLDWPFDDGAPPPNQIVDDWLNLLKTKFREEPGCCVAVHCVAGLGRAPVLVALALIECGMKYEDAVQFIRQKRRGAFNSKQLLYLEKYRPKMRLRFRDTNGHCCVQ

recombinant PRL-1 = biological target: T2, recombinant PRL-1 (Homo sapiens, UniProt Q93096); assay: In vitro phosphatase assay (DiFMUP hydrolysis), PRL-1; as to % Phosphatase Activity (compared to DMSO) PRL-1: test concentration or dose not given here
T2 construct: 6xHis (N, cleaved yes); made in house; host or cells: E. coli One Shot BL21 Star
T2 sequence (Q93096 1-173): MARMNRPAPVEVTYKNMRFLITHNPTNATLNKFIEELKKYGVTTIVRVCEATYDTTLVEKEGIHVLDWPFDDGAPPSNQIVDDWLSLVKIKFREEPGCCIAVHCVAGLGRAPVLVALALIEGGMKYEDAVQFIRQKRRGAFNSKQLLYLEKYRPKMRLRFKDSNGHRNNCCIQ

recombinant PRL-3 = biological target: T3, recombinant PRL-3 (Homo sapiens, UniProt O75365); assay: In vitro phosphatase assay (DiFMUP hydrolysis), PRL-3; as to % Phosphatase Activity (compared to DMSO) PRL-3: test concentration or dose not given here
T3 construct: 6xHis (N, cleaved yes); made in house; host or cells: E. coli One Shot BL21 Star

[1] = FDA-approved drug screen, compared to DMSO

T3 sequence (O75365 whole entry): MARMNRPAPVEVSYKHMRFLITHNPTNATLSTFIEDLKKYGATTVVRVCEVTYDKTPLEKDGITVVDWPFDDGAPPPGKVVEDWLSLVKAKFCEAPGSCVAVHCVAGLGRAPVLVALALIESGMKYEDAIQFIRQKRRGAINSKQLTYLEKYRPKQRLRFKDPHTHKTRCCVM

Row | SMILES | % Phosphatase Activity (compared to DMSO) PRL-2 (recombinant PRL-2; [1]) [%] | IC50 (recombinant PRL-2; […] protein, DiFMUP at KM, read-out: Calculated IC50, PRL-2 phosphatase activity) [µM] | % Phosphatase Activity (compared to DMSO) PRL-1 (recombinant PRL-1; [1]) [%] | IC50 (recombinant PRL-1; […] protein, DiFMUP at KM, read-out: Calculated IC50, PRL-1 phosphatase activity) [µM] | % Phosphatase Activity (compared to DMSO) PRL-3 (recombinant PRL-3; [1]) [%] | IC50 (recombinant PRL-3; […] protein, DiFMUP at KM, read-out: Calculated IC50, PRL-3 phosphatase activity) [µM] | % Phosphatase Activity (compared to DMSO) PRL-2 (recombinant PRL-2) [%] | % Phosphatase Activity (compared to DMSO) PRL-1 (recombinant PRL-1) [%] | % Phosphatase Activity (compared to DMSO) PRL-3 (recombinant PRL-3) [%]
1 | Cc1cc(C(C#N)c2ccc(Cl)cc2)c(Cl)cc1NC(=O)c1cc(I)cc(I)c1[O-].[Na+] (stereo not drawn) [Closantel Sodium, reference compound] | 12 | 18 ± 1 | 15 | 22 ± 8 | 34 | 10 ± 0.4 | – | – | –
2 | Cc1onc(-c2ccccc2Cl)c1C(=O)N[C@@H]1C(=O)N2[C@@H]1SC(C)(C)[C@@H]2C(=O)O [Cloxacillin Sodium] | 104 | – | 98 | – | 87 | – | – | – | –
3 | Oc1ccc(Cl)c2cccnc12 [Cloxiquine] | 100 | – | 108 | – | 90 | – | – | – | –
4 | CN1CCN(C2=Nc3cc(Cl)ccc3Nc3ccccc32)CC1 [Clozapine] | 95 | – | 108 | – | 85 | – | – | – | –
5 | CC(C)c1nc(CN(C)C(=O)N[C@@H](CCN2CCOCC2)C(=O)N[C@H](CC[C@H](Cc2ccccc2)NC(=O)OCc2cncs2)Cc2ccccc2)cs1 [Cobicistat (GS-9350)] | 95 | – | 88 | – | 95 | – | – | – | –
6 | O=C(c1ccc(F)c(F)c1Nc1ccc(I)cc1F)N1CC(O)([C@@H]2CCCCN2)C1 [Cobimetinib (GDC-0973, RG7420)] | 97 | – | 95 | – | 95 | – | – | – | –
7 | Cc1nc2c([nH]1)-c1ccccc1N(C(=O)c1ccc(NC(=O)c3ccccc3-c3ccccc3)cc1)CC2.Cl [Conivaptan HCl] | 106 | – | 95 | – | 85 | – | – | – | –
8 | CC(=O)OCC(=O)[C@@]1(O)CC[C@H]2[C@@H]3CCC4=CC(=O)CC[C@]4(C)[C@H]3C(=O)C[C@@]21C [Cortisone acetate] | 94 | – | 98 | – | 78 | – | – | – | –
9 | O=c1ccc2ccccc2o1 [Coumarin] | 98 | – | 92 | – | 76 | – | – | – | –
10 | CC1(COc2ccc3c(c2)ncn3-c2ccc3cccc(N4CCC(N)CC4)c3n2)COC1 [Crenolanib (CP-868596)] | 115 | – | 117 | – | 105 | – | – | – | –
11 | CN(C)c1ccc(C(=C2C=CC(=[N+](C)C)C=C2)c2ccc(N(C)C)cc2)cc1 [Crystal Violet] | 86 | – | 79 | – | 85 | – | – | – | –
12 | COc1cc(/C=C/C(=O)CC(=O)/C=C/c2ccc(O)c(OC)c2)ccc1O [Curcumin] | 77 | – | 78 | – | 85 | – | – | – | –
13 | CC1CC(OC(=O)C(O)c2ccccc2)CC(C)(C)C1 (stereo not drawn) [Cyclandelate] | 84 | – | 82 | – | 74 | – | – | – | –
14 | CN1CCN(C(c2ccccc2)c2ccccc2)CC1.Cl.Cl [Cyclizine 2HCl] | 116 | – | 94 | – | 69 | – | – | – | –
15 | CN(C)CCC=C1c2ccccc2C=Cc2ccccc21 [Cyclobenzaprine HCl] | – | – | – | – | – | – | 103 | 104 | 85
16 | O=P1(N(CCCl)CCCl)NCCCO1 (stereo not drawn) [Cyclophosphamide Monohydrate] | – | – | – | – | – | – | 105 | 90 | 94
17 | CN1CCC(=C2c3ccccc3C=Cc3ccccc32)CC1 [Cyproheptadine hydrochloride] | 102 | – | 93 | – | 84 | – | – | – | –
18 | CC(=O)O[C@]1(C(C)=O)CC[C@H]2[C@@H]3C=C(Cl)C4=CC(=O)[C@@H]5C[C@@H]5[C@]4(C)[C@H]3CC[C@@]21C [Cyproterone Acetate] | 91 | – | 92 | – | 99 | – | – | – | –
19 | Nc1nc(N)nc(NC2CC2)n1 [Cyromazine] | 101 | – | 90 | – | 78 | – | – | – | –
